Measurements from patent publication US11179388B2, “Topical composition for treating rosacea and a method for treating rosacea with the same” (ADS THERAPEUTICS LLC, priority 2017, dated 2021).

How the values were obtained:
[1] = system: Rosacea patients with moderate to severe persistent facial erythema; experiment: Erythema study, Clinician Erythema Assessment (CEA) in rosacea patients; format: in vivo, human
Text: Rosacea patients with moderate to severe persistent facial erythema are selected for treatment. The erythema is graded according to the Clinician Erythema Assessment (CEA) scale with photonumeric guide. It has a five-point scale: 0: clear skin with no signs of erythema; 1: almost clear, slight redness; 2: mild erythema, definite redness; 3: moderate erythema, marked redness; 4: severe erythema, fiery redness. Patients with CEA […] are enrolled in the study.
The study is double-masked. There are 5 treatment groups for 5 cream formulations (vehicle, 0.2% nintedanib, 0.3% brimonidine, combo-1 [0.2% nintedanib and 0.3% brimonidine], and combo-2 [0.1% nintedanib and 0.15% brimonidine]) to be tested and each group will have about 20 patients. The patients are assigned to the groups in a way to make sure the base line average grade is similar among the groups. The formulations are dosed once daily for 4 weeks and the patients are further followed up for 8 weeks. The drug is administered by a physician on the first day of visit and then self-administered by the patient for the remaining 4 weeks. Patients are evaluated on day 1, week 2 and 4 during dosing. After the stop of dosing, patients are further followed up at week 8 and 12.
The effect on erythema is evaluated by taking pictures of the face. […] The tolerability of the formulations is also evaluated by assessing treatment related adverse events. The efficacy and tolerability data are analyzed by independent statisticians.

[2] = system: pterygium patients (pterygium vascularity); experiment: Phase 2a clinical trial of nintedanib eye drop in pterygium patients; format: in vivo, human
Method: Nintedanib was formulated into an eye drop and tested in pterygium patients in a Phase 2a clinical trial to evaluate the safety and efficacy of nintedanib. The key efficacy endpoint is effects on pterygium vascularity.
The clinic trial was conducted in two stages. In stage 1, the safety, tolerability and pharmacokinetics were evaluated in a single dose escalating study. Three dose cohorts with 8 patients in each were evaluated. Cohort 1 began at the lowest concentration of 0.02% nintedanib (weight percent based on the total weight of the eye drop), followed by an increasing dose to 0.05% for Cohort 2 and then to 0.2% for Cohort 3.
In stage 2, the safety, tolerability and efficacy of the 0.2% formulation were evaluated in a randomized, double-masked, vehicle-controlled, parallel study with 28 days TID repeat ocular dosing of vehicle and 0.2% nintedanib. The patients were further followed up by 20 weeks of post-dosing observation. Ophthalmic and physical examinations were performed at screening, Day 1 and Week 2, 4, 8, 16, and 24. External photograph of the pterygium eye was taken using a digital camera and the pterygium vascularity was graded from these images at an independent image reading center. The primary objective is to evaluate ocular and systemic safety of nintedanib in pterygium patients that have moderate to severe pterygium vascularity. […]

[3] = day 1 after dosing, cream formulations
[4] = week 1, 2 and 4, during dosing, cream once daily

Row | Compound | erythema grade after stop of treatment ([1]; after stop of dosing at week 4, week 8 and 12) | erythema grade reduction from baseline [1, 3] | erythema grade reduction from baseline [1, 4] | safety and tolerability (stage 2) ([2]; 0.2% eye drop TID 28 days, 20 weeks post-dosing observation) | safety, single dose escalating study (stage 1) ([2]; eye drop 0.02%, 0.05% and 0.2%, single dose, 8 patients per cohort) | erythema grade versus baseline after stop of treatment ([1]; week 8) | erythema grade versus baseline after stop of treatment ([1]; week 12)
1 | COC(=O)c1ccc2c(c1)NC(=O)/C2=C(\Nc1ccc(N(C)C(=O)CN2CCN(C)CC2)cc1)c1ccccc1 [Nintedanib, (Z)-3-(1-(4-(N-((4-methyl-piperazin-1-yl)-methylcarbonyl)-N-methyl-amino)-phenylamino)-1-phenyl-methylene]-6-methoxycarbonyl-2-indolinone] | remains lower than the baseline | does not change | about 1 grade | excellent with no serious adverse events | No safety issues | – | –
2 | Brc1c(NC2=NCCN2)ccc2nccnc12 [brimonidine, (5-bromoquinoxalin-6-yl)-(4,5-dihydro-1H-imidazol-2-yl)-amine] | – | about 1 grade | reduction remains | – | – | slightly higher than baseline | returns to the baseline
